Several values for one entry are separate records, joined by “and”; a condition that tells them apart may be missing. Identical values can stand only once.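 Exposure lasted 48 hours, with cells grown in 96-well plates and compounds tested at five concentrations. Here, GI50 denotes the concentration required for 50% inhibition of growth.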 Activity calls are given as the source filed them. Rule as the data show it: active = GI50 up to about 1.1 µM and inactive = higher.
Assays:
Assay in all cases: DTP human tumour cell line panel, 48 h
MDA-MB-435 = test system: MDA-MB-435
SK-OV-3 = test system: SK-OV-3
M14 = test system: M14
SNB-75 = test system: SNB-75
SK-MEL-28 = test system: SK-MEL-28
UO-31 = test system: UO-31
NCI-H460 = test system: NCI-H460
NCI-H522 = test system: NCI-H522
SN12C = test system: SN12C
BT-549 = test system: BT-549
Malme-3M = test system: Malme-3M
SF-539 = test system: SF-539
SW-620 = test system: SW-620
OVCAR-5 = test system: OVCAR-5
MOLT-4 = test system: MOLT-4
T47D = test system: T47D
MDA-N = test system: MDA-N
A549 = test system: A549
786-0 = test system: 786-0
COLO 205 = test system: COLO 205
HCC 2998 = test system: HCC 2998
DU-145 = test system: DU-145
SK-MEL-5 = test system: SK-MEL-5
LOX IMVI = test system: LOX IMVI
HOP-92 = test system: HOP-92
MCF7 = test system: MCF7
NCI-H23 = test system: NCI-H23
MDA-MB-231 = test system: MDA-MB-231
CCRF-CEM = test system: CCRF-CEM
ACHN = test system: ACHN
KM12 = test system: KM12
HCT-15 = test system: HCT-15
SNB-19 = test system: SNB-19
HCT-116 = test system: HCT-116
OVCAR-8 = test system: OVCAR-8
CAKI-1 = test system: CAKI-1
SF-268 = test system: SF-268
K562 = test system: K562
NCI-H226 = test system: NCI-H226
OVCAR-3 = test system: OVCAR-3
RXF 393 = test system: RXF 393
TK-10 = test system: TK-10
NCI/ADR-RES = test system: NCI/ADR-RES
HOP-62 = test system: HOP-62
SR = test system: SR
OVCAR-4 = test system: OVCAR-4
EKVX = test system: EKVX
U-251 = test system: U-251
HT-29 = test system: HT-29
PC-3 = test system: PC-3
SK-MEL-2 = test system: SK-MEL-2
UACC-257 = test system: UACC-257
IGROV-1 = test system: IGROV-1
HL-60 = test system: HL-60
RPMI-8226 = test system: RPMI-8226
SF-295 = test system: SF-295
UACC-62 = test system: UACC-62
A498 = test system: A498

Structure (SMILES): Cc1cc(C)nc(NS(=O)(=O)c2ccc(NNc3c4ccccc4nc4c(C(=O)Nc5ccc(S(=O)(=O)N=C(N)N)cc5)cccc34)cc2)n1
- GI50 (MDA-MB-435): 39.1 µM (inactive)
- GI50 (SK-OV-3): 24.8 µM (inactive)
- GI50 (M14): 97.9 µM (inactive)
- GI50 (SNB-75): 28.4 µM (inactive)
- GI50 (SK-MEL-28): 17.6 µM (inactive)
- GI50 (UO-31): 27.7 µM (inactive)
- GI50 (NCI-H460): 47.4 µM (inactive)
- GI50 (NCI-H522): 36.6 µM (inactive)
- GI50 (SN12C): 64.1 µM (inactive)
- GI50 (BT-549): 56 µM (inactive)
- GI50 (Malme-3M): 76 µM (inactive)
- GI50 (SF-539): 67 µM (inactive)
- GI50 (SW-620): 71.6 µM (inactive)
- GI50 (OVCAR-5): 25.1 µM (inactive)
- GI50 (MOLT-4): 34.9 µM (inactive)
- GI50 (T47D): 25.8 µM (inactive)
- GI50 (MDA-N): 49.5 µM (inactive)
- GI50 (A549): > 100 µM (inactive)
- GI50 (786-0): 65.5 µM (inactive)
- GI50 (COLO 205): 36.1 µM (inactive)
- GI50 (HCC 2998): 39.3 µM (inactive)
- GI50 (DU-145): 65.8 µM (inactive)
- GI50 (SK-MEL-5): 53.1 µM (inactive)
- GI50 (LOX IMVI): 33.7 µM (inactive)
- GI50 (HOP-92): 35.6 µM (inactive)
- GI50 (MCF7): 76 µM (inactive)
- GI50 (NCI-H23): 55.8 µM (inactive)
- GI50 (MDA-MB-231): 49.1 µM (inactive)
- GI50 (CCRF-CEM): 34.6 µM (inactive)
- GI50 (ACHN): 45 µM (inactive)
- GI50 (KM12): 34.7 µM (inactive)
- GI50 (HCT-15): 63.4 µM
- GI50 (SNB-19): 61.1 µM (inactive)
- GI50 (HCT-116): 48 µM (inactive)
- GI50 (OVCAR-8): 52.4 µM (inactive)
- GI50 (CAKI-1): > 100 µM (inactive)
- GI50 (SF-268): 45 µM (inactive)
- GI50 (K562): 31.4 µM (inactive)
- GI50 (NCI-H226): 49.7 µM (inactive)
- GI50 (OVCAR-3): 31.8 µM (inactive)
- GI50 (RXF 393): > 100 µM (inactive)
- GI50 (TK-10): > 100 µM (inactive)
- GI50 (NCI/ADR-RES): > 100 µM (inactive)
- GI50 (HOP-62): > 100 µM (inactive)
- GI50 (SR): 27.5 µM (inactive)
- GI50 (OVCAR-4): 65.2 µM (inactive)
- GI50 (EKVX): 30.5 µM (inactive)
- GI50 (U-251): 25.4 µM (inactive)
- GI50 (HT-29): 26.6 µM (inactive)
- GI50 (PC-3): 31.6 µM (inactive)
- GI50 (SK-MEL-2): 3.64 µM (inactive)
- GI50 (UACC-257): > 100 µM (inactive)
- GI50 (IGROV-1): 53 µM (inactive)
- GI50 (HL-60): 37.5 µM (inactive)
- GI50 (RPMI-8226): 93.3 µM (inactive)
- GI50 (SF-295): 77.3 µM (inactive)

Structure (SMILES): C#CC1(O)C(COP(=O)(O)OC(COCCCCCCCCCCCCCCCCCC)COP(=O)(O)OCC2OC(n3cc(F)c(=O)[nH]c3=O)CC2O)OC(n2ccc(N)nc2=O)C1O (centres undefined)
- GI50 (MDA-MB-435): 514 nM (active) and 376 nM (active)
- GI50 (SK-OV-3): 1.32 µM (inactive) and 2.43 µM (inactive)
- GI50 (UACC-62): 546 nM (active) and 277 nM (active)
- GI50 (NCI-H460): < 21.3 nM (active) and < 13.9 nM (active)
- GI50 (SN12C): 0.0818 µM (active)
- GI50 (BT-549): 752 nM (active) and 466 nM (active)
- GI50 (SF-539): < 21.3 nM (active) and < 23.3 nM (active)
- GI50 (SW-620): 114 nM (active) and 91.8 nM (active)
- GI50 (MDA-N): 418 nM (active) and 293 nM (active)
- GI50 (A549): < 28.8 nM (active) and 29.7 nM (active)
- GI50 (COLO 205): 244 nM (active) and 211 nM (active)
- GI50 (HCC 2998): 1.26 µM (inactive)
- GI50 (SK-MEL-5): 621 nM (active) and 467 nM (active)
- GI50 (MCF7): < 24.7 nM (active) and < 18.3 nM (active)
- GI50 (MDA-MB-231): 1.1 µM (active) and 731 nM (active)
- GI50 (ACHN): < 36.1 nM (active) and 59.2 nM (active)
- GI50 (KM12): 454 nM (active) and 252 nM (active)
- GI50 (SNB-19): 152 nM (active) and 277 nM (active)
- GI50 (CAKI-1): 48.5 nM (active) and 54.8 nM (active)
- GI50 (SF-268): < 27.2 nM (active) and 48.8 nM (active)
- GI50 (K562): < 31.3 nM (active) and 27.5 nM (active)
- GI50 (NCI-H226): 471 nM (active) and 299 nM (active)
- GI50 (OVCAR-3): 1.04 µM (active) and 1.93 µM (inactive)
- GI50 (TK-10): 200 nM (active) and 124 nM (active)
- GI50 (NCI/ADR-RES): 209 nM (active) and 265 nM (active)
- GI50 (HOP-62): 434 nM (active) and 399 nM (active)
- GI50 (SR): < 13.8 nM (active) and < 15.7 nM (active)
- GI50 (HT-29): 361 nM (active) and 313 nM (active)
- GI50 (UACC-257): 1.15 µM (inactive) and 1.92 µM (inactive)
- GI50 (RPMI-8226): 26.2 nM (active) and < 16.3 nM (active)

Structure (SMILES): CSc1nc2c(c(=O)n1C)N=C(c1ccc([N+](=O)[O-])cc1)CC(c1ccccc1)N2 (centres undefined)
- GI50 (MDA-MB-435): > 100 µM (inactive)
- GI50 (SK-OV-3): > 100 µM (inactive)
- GI50 (A498): > 100 µM (inactive)
- GI50 (M14): > 100 µM (inactive)
- GI50 (UACC-62): > 100 µM (inactive)
- GI50 (SNB-75): 41.2 µM (inactive)
- GI50 (SK-MEL-28): > 100 µM (inactive)
- GI50 (UO-31): > 100 µM (inactive)
- GI50 (NCI-H460): 90.6 µM (inactive)
- GI50 (NCI-H522): 48.8 µM (inactive)
- GI50 (SN12C): > 100 µM (inactive)
- GI50 (BT-549): > 100 µM (inactive)
- GI50 (Malme-3M): > 100 µM (inactive)
- GI50 (SF-539): > 100 µM (inactive)
- GI50 (SW-620): > 100 µM (inactive)
- GI50 (OVCAR-5): > 100 µM (inactive)
- GI50 (MOLT-4): 33 µM (inactive)
- GI50 (A549): > 100 µM (inactive)
- GI50 (786-0): > 100 µM (inactive)
- GI50 (COLO 205): > 100 µM (inactive)
- GI50 (HCC 2998): > 100 µM (inactive)
- GI50 (DU-145): > 100 µM (inactive)
- GI50 (SK-MEL-5): > 100 µM (inactive)
- GI50 (LOX IMVI): 78.9 µM (inactive)
- GI50 (HOP-92): > 100 µM (inactive)
- GI50 (MCF7): 49 µM (inactive)
- GI50 (NCI-H23): 99.8 µM (inactive)
- GI50 (MDA-MB-231): 36.8 µM (inactive)
- GI50 (CCRF-CEM): 72.4 µM (inactive)
- GI50 (ACHN): 95.9 µM (inactive)
- GI50 (KM12): 84.3 µM (inactive)
- GI50 (SNB-19): > 100 µM (inactive)
- GI50 (HCT-116): > 100 µM (inactive)
- GI50 (OVCAR-8): > 100 µM (inactive)
- GI50 (CAKI-1): > 100 µM (inactive)
- GI50 (K562): > 100 µM (inactive)
- GI50 (NCI-H226): > 100 µM (inactive)
- GI50 (OVCAR-3): > 100 µM (inactive)
- GI50 (RXF 393): > 100 µM (inactive)
- GI50 (NCI/ADR-RES): > 100 µM (inactive)
- GI50 (HOP-62): > 100 µM (inactive)
- GI50 (SR): > 100 µM (inactive)
- GI50 (OVCAR-4): 91.8 µM (inactive)
- GI50 (EKVX): > 100 µM (inactive)
- GI50 (U-251): > 100 µM (inactive)
- GI50 (HT-29): > 100 µM (inactive)
- GI50 (PC-3): > 100 µM (inactive)
- GI50 (SK-MEL-2): > 100 µM (inactive)
- GI50 (UACC-257): > 100 µM (inactive)
- GI50 (IGROV-1): > 100 µM (inactive)
- GI50 (HL-60): 20.5 µM (inactive)
- GI50 (RPMI-8226): > 100 µM (inactive)
- GI50 (SF-295): > 100 µM (inactive)
